# Legend:
# NCI-H2228 [1] = test: cells; conditions: Homo sapiens, NCI-H2228, 72 h
# Description: Antiproliferative activity against human NCI-H2228 cells assessed as reduction in cell viability measured after 72 hrs by CCK8 assay
# NCI-H2228 [2] = test: animal or person; conditions: Mus musculus, NCI-H2228, po, 552 h, read-out: TGI
# [3] = Toxicity in BALB/c nu/nu mouse xenografted with human NCI-H2228 cells at 50 mg/kg, po qd for 23 days; assay type: organism-based; conditions: in vivo, 552 h, time 23 day
# in vitro [4] = conditions: mouse, liver microsomes
# Description: Intrinsic clearance in mouse liver microsomes at 1 uM preincubated for 5 mins followed by NADPH addition and measured for 60 mins by LC-MS/MS analysis
# in vitro [5] = conditions: human, liver microsomes
# Description: Half life in human liver microsomes at 1 uM preincubated for 5 mins followed by NADPH addition and measured for 60 mins by LC-MS/MS analysis
# in vitro [6] = conditions: mouse, liver microsomes; remark: listed apart in the source
# Description: Metabolic stability of the compound in mouse liver microsomes assessed as parent compound remaining at 1 uM preincubated for 5 mins followed by NADPH addition and measured after 60 mins by LC-MS/MS analysis
# [7] = Tmax in human NCI-H2228 cells xenografted BALB/c nu/nu mouse plasma at 50 mg/kg, po qd for 23 days by UPLC-MS/MS analysis; assay type: ADME, organism-based; conditions: time 23 day
# in vitro [8] = conditions: human, liver microsomes; remark: listed apart in the source
# Description: Metabolic stability of the compound in human liver microsomes assessed as parent compound remaining at 1 uM preincubated for 5 mins followed by NADPH addition and measured after 60 mins by LC-MS/MS analysis
# [9] = Drug uptake in tumor of BALB/c nu/nu mouse xenografted with human NCI-H2228 cells at 50 mg/kg, po qd for 23 days and measured at 6 hrs post-last drug dosage by UPLC-MS/MS analysis; assay type: ADME, organism-based, Neoplasm; conditions: time 23 day, read-out: Drug uptake
# in vitro [10] = conditions: human, liver microsomes; remark: listed apart in the source
# Description: Intrinsic clearance in human liver microsomes at 1 uM preincubated for 5 mins followed by NADPH addition and measured for 60 mins by LC-MS/MS analysis
# [11] = Cmax in human NCI-H2228 cells xenografted BALB/c nu/nu mouse plasma at 50 mg/kg, po qd for 23 days by UPLC-MS/MS analysis; assay type: ADME, organism-based; set-up: time 23 day, dose 50 mg/kg, route po
# [12] = AUC (0 to t) in human NCI-H2228 cells xenografted BALB/c nu/nu mouse plasma at 50 mg/kg, po qd for 23 days by UPLC-MS/MS analysis; assay type: ADME, organism-based; set-up: time 23 day, dose 50 mg/kg, route po
# in vitro [13] = conditions: mouse, liver microsomes; remark: listed apart in the source
# Description: Half life in mouse liver microsomes at 1 uM preincubated for 5 mins followed by NADPH addition and measured for 60 mins by LC-MS/MS analysis
# [14] = Toxicity in BALB/c nu/nu mouse xenografted with human NCI-H2228 cells assessed as body weight loss at 50 mg/kg, po qd for 23 days; assay type: organism-based; conditions: in vivo, 552 h, time 23 day
smiles,measurement,setting,value
Cc1cc(Nc2ncc(Cl)c(Nc3cccc4c3B(O)OC4)n2)c(OC(C)C)cc1C1CCNCC1,IC50,NCI-H2228 [1],0.617 µM
COc1cc(N2CCC(N(C)C)CC2)ccc1Nc1ncc(Cl)c(Nc2cccc3c2B(O)OC3)n1,IC50,NCI-H2228 [1],0.624 µM
COc1cc(N2CCC(N3CCN(C)CC3)CC2)ccc1Nc1ncc(Cl)c(Nc2cccc3c2B(O)OC3)n1,IC50,NCI-H2228 [1],0.699 µM
COc1cc(N2CCC(N(C)C)CC2)ccc1Nc1ncc(Cl)c(Nc2ccc3c(c2)B(O)OC3)n1,inhibition in vivo at 50 mg/kg,NCI-H2228 [2],52%
same,Activity,[3],Non-Toxic
same,"microsomal CLint at 1 h, 1 µM",in vitro [4],36.5 µL/min/mg
same,"half-life at 1 h, 1 µM",in vitro [5],3.97 h
same,"remaining at 1 h, 1 µM",in vitro [6],32.8%
same,Tmax,[7],3.6 h
same,"remaining at 1 h, 1 µM",in vitro [8],82.6%
same,concentration at 552 h,[9],1200 ng/g
same,"microsomal CLint at 1 h, 1 µM",in vitro [10],5.8 µL/min/mg
same,IC50,NCI-H2228 [1],0.52 µM
same,Cmax,[11],3.2 µg/mL
same,AUC(0-t) at 552 h,[12],15.4 µg·h/mL
same,"half-life at 1 h, 1 µM",in vitro [13],0.633 h
same,Activity,[14],Non-Toxic
Cc1cc(Nc2ncc(Cl)c(Nc3ccc4c(c3)B(O)OC4)n2)c(OC(C)C)cc1C1CCNCC1,IC50,NCI-H2228 [1],2.55 µM
COc1cc(N2CCC(N3CCN(C)CC3)CC2)ccc1Nc1ncc(Cl)c(Nc2ccc3c(c2)B(O)OC3)n1,IC50,NCI-H2228 [1],1.13 µM
COc1cc(N2CCN(C)CC2)ccc1Nc1ncc(Cl)c(Nc2ccc3c(c2)B(O)OC3)n1,"microsomal CLint at 1 h, 1 µM",in vitro [4],31.9 µL/min/mg
same,"half-life at 1 h, 1 µM",in vitro [5],2.97 h
same,"remaining at 1 h, 1 µM",in vitro [6],37.4%
same,"remaining at 1 h, 1 µM",in vitro [8],77.8%
same,"microsomal CLint at 1 h, 1 µM",in vitro [10],7.8 µL/min/mg
same,IC50,NCI-H2228 [1],0.825 µM
same,"half-life at 1 h, 1 µM",in vitro [13],0.725 h

# Source: ChEMBL document CHEMBL5236584, “Design and synthesis of boron-containing ALK inhibitor with favorable in vivo efficacy” (Bioorg Med Chem, 2022)
